Results reported in ChEMBL document CHEMBL1150093, “Santolindiacetylene, a polyacetylene derivative isolated from the essential oil of Santolina canescens” (J Nat Prod, 1995).
Converted amounts (≈) assume the structure as drawn.

Tests used:
[1] = tested on: Radical scavenging activity; assay: Antioxidant activity assessed as DPPH radical scavenging activity; type: functional
Rattus norvegicus [2] = assay: Antihepatotoxic activity against carbon tetrachloride-induced hepatotoxicity in Wistar rat assessed as decrease in serum glutamate pyruvate transaminase level at 7 mg/kg, ip administered 24 hrs before carbon tetrachloride intoxication; type: functional; details: route intraperitoneal
Rattus norvegicus [3] = assay: Antihepatotoxic activity against carbon tetrachloride-induced hepatotoxicity in Wistar rat liver assessed as decrease in serum glutamate pyruvate transaminase level at 7 mg/kg, ip administered 24 hrs before carbon tetrachloride intoxication relative to control; type: functional; design: scale not given: the % may be the effect or the level left; details: route intraperitoneal
Rattus norvegicus [4] = assay: Antihepatotoxic activity against carbon tetrachloride-induced hepatotoxicity in Wistar rat liver assessed as decrease in hepatic malondialdehyde level at 7 mg/kg, ip administered 24 hrs before carbon tetrachloride intoxication; type: functional; details: route intraperitoneal
Rattus norvegicus [5] = assay: Antihepatotoxic activity against carbon tetrachloride-induced -induced hepatotoxicity in Wistar rat liver assessed as decrease in hepatic malondialdehyde level at 7 mg/kg, ip administered 24 hrs before carbon tetrachloride intoxication relative to control; type: functional; design: scale not given: the % may be the effect or the level left; details: route intraperitoneal
Rattus norvegicus [6] = assay: Antihepatotoxic activity against carbon tetrachloride-induced hepatotoxicity in Wistar rat liver assessed as decrease in serum glutamate pyruvate transaminase level at 35 mg/kg, ip administered 24 hrs before carbon tetrachloride intoxication; type: functional, organism-based; design: dose 35 mg/kg
Rattus norvegicus [7] = assay: Antihepatotoxic activity against carbon tetrachloride-induced hepatotoxicity in Wistar rat liver assessed as decrease in serum glutamate pyruvate transaminase level at 35 mg/kg, ip administered 24 hrs before carbon tetrachloride intoxication relative to control; type: functional, organism-based; design: dose 35 mg/kg; scale not given: the % may be the effect or the level left
Rattus norvegicus [8] = assay: Antihepatotoxic activity against carbon tetrachloride-induced hepatotoxicity in Wistar rat liver assessed as decrease in hepatic malondialdehyde level at 35 mg/kg, ip administered 24 hrs before carbon tetrachloride intoxication; type: functional, organism-based; design: dose 35 mg/kg
Rattus norvegicus [9] = assay: Antihepatotoxic activity against carbon tetrachloride-induced hepatotoxicity in Wistar rat liver assessed as decrease in hepatic malondialdehyde level at 35 mg/kg, ip administered 24 hrs before carbon tetrachloride intoxication relative to control; type: functional, organism-based; design: dose 35 mg/kg; scale not given: the % may be the effect or the level left

Compound | EC50 [1] [mg/mL] | other results
O=C1O[C@H]([C@@H](O)CO)C(O)=C1O |  | Activity [1]: 2.7 µg/mL
CC1=CCC2CC1C2(C)C (stereo not drawn) [ALPHA-PINENE] | 330.6 (≈ 2430 mM) | 
CC1=CC[C@@H](C(C)(C)O)CC1 [ALPHA-TERPINEOL] | 0.1463 (≈ 0.948 mM) | 
C=C1C=CC(C(C)C)CC1 (stereo not drawn) [BETA-PHELLANDRENE] | 127.7 (≈ 937 mM) | 
C=C1CCC2CC1C2(C)C (stereo not drawn) [BETA-PINENE] | 220.1 (≈ 1620 mM) | 
CC1(C)C2CCC1(C)C(O)C2 (centres undefined) [BORNEOL] | 2.4 (≈ 15.6 mM) | 
CC12CCC(CC1=O)C2(C)C (centres undefined) [CAMPHOR] | 2.4 (≈ 15.8 mM) | 
C=C(C)C1CC=C(C)C(=O)C1 (centres undefined) [CARVONE] | 11.7 (≈ 77.9 mM) | 
C=C1CC/C=C(/C)CC[C@@H]2[C@@H]1CC2(C)C [CARYOPHYLLENE] | 0.0037 (≈ 0.0181 mM) | 
CC1=CCC(C(C)C)=CC1 [GAMMA-TERPINENE] | 22 (≈ 161 mM) | 
C=CC(=C)CCC=C(C)C [MYRCENE] | 248 (≈ 1820 mM) | 
Cc1ccc(C(C)C)cc1 [P-CYMENE] | 408 (≈ 3040 mM) | 
C=C1CCC2(C(C)C)CC12 (centres undefined) [SABINENE] | 232.7 (≈ 1710 mM) | 
CC#CC#CCc1ccc2ccccc2c1 [SANTOLINDIACETYLENE] |  | Activity [1]: 1.7 µg/mL; Activity (Rattus norvegicus [2]): 23.3 IU/L; Activity (Rattus norvegicus [3]): 19.8%; Activity (Rattus norvegicus [4]): 0.182 nmol/mL; Activity (Rattus norvegicus [5]): 33.3%
CC1=CCC(O)(C(C)C)CC1 (centres undefined) [TERPINEOL] | 53.7 (≈ 348 mM) | 
SILYMARIN |  | Activity [1]: 24.6 µg/mL; Activity (Rattus norvegicus [6]): 27.9 IU/L; Activity (Rattus norvegicus [7]): 23.7%; Activity (Rattus norvegicus [8]): 0.2 nmol/mL; Activity (Rattus norvegicus [9]): 36.6%
